Assay results as given in patent US11806401B2, “Prevention of drug-induced atrio-ventricular block” (SignPath Pharma Inc., priority 2016, dated 2023).
Values belong to the compound of their own block, whether it stands above or below them.

What was measured:
guinea pigs [1] = assay: Effect of single oral doses of Moxifloxacin on QTc interval of instrumented guinea pigs, without or with 14:0 lyso PG; format: in vivo, guinea pig
guinea pigs [2] = assay: Effect of Fingolimod, verapamil and 14:0 lyso PG on QTc interval in instrumented guinea pigs; format: in vivo, guinea pig
guinea pigs [3] = assay: Effect of Fingolimod, verapamil and 14:0 lyso PG on PR intervals / AV block in instrumented guinea pigs; format: in vivo, guinea pig
Experimental: PR intervals were measured following the infusion of Fingolimod. Measurements of PR were stopped when the P wave disconnected from the QRS complexes, indicating 3rd degree AV block.
Fingolimod was administered by intravenous infusion to instrumented guinea pigs at doses ranging from 3 μg/kg to 300 μg/kg (n=6, green series, above). The intravenous route of administration was selected because it simplified the pharmacokinetics of this multi-drug experiment.
Again, the intravenous route of administration for both drugs was selected to simplify the kinetics of the experiment.

[4] = system: normal subjects and cancer patients; assay: Phase 1a and 1b clinical studies of liposomal curcumin (14:0 lyso PG); format: in vivo, human
Description: To date, 45 normal subjects and 28 cancer patients have been tested in Phase 1a and 1b (ongoing) studies, respectively.

[5] = Prevention of drug-induced QTc prolongation in regulatory-validated preclinical models; format: in vivo; conditions: against Moxifloxacin; Nilotinib; Crizotinib; Sotalol; Curcumin; Nifedipine; Lovastatin; Thioridazine; Amiodarone; Terfenadine; E4031; Felbamate; Gilenya; Quizartinib (AC220); Forskolin; Turmerone
[6] = system: clinical volunteers and patients; conditions: cited from earlier work
IKr = IKr (Homo sapiens, UniProt Q12809); conditions: cited from earlier work
Sequence of IKr (Q12809 whole entry): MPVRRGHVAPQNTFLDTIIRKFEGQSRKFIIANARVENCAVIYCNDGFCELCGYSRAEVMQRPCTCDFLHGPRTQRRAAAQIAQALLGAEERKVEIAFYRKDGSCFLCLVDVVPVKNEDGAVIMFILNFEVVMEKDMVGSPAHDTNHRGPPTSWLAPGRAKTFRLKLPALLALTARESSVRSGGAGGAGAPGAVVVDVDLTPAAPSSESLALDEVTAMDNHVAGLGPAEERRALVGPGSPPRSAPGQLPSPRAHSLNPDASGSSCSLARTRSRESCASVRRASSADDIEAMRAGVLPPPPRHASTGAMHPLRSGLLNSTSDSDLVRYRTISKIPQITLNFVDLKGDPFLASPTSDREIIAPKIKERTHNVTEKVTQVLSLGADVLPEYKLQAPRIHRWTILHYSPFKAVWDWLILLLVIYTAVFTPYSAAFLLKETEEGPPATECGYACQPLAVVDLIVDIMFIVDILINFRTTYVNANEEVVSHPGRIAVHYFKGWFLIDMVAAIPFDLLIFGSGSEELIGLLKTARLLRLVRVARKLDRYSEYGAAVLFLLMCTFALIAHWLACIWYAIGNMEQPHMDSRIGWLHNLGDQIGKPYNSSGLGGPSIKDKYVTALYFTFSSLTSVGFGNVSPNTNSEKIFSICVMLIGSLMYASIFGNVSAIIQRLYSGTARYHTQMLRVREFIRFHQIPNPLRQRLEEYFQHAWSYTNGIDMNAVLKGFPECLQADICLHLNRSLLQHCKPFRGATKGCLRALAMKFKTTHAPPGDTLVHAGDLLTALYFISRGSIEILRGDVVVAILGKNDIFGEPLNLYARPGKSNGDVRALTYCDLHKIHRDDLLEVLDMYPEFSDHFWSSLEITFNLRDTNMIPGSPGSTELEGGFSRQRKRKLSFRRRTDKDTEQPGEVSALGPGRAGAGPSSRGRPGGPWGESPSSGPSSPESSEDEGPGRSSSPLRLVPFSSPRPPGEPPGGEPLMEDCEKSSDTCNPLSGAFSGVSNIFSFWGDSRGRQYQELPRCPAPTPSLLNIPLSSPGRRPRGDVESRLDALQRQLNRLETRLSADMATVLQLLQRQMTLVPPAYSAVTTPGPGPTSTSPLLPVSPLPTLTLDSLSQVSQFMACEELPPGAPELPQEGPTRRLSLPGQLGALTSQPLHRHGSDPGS

[7] = 14:0 lyso PG given orally prior to Fingolimod and/or verapamil
[8] = 0.5 mg/kg verapamil i.v. 60 minutes before Fingolimod infusion
[9] = intravenous infusion of Fingolimod alone
[10] = oral 1.0 mg/kg 14:0 lyso PG, then verapamil, then Fingolimod infusion

Structure (SMILES): CCCCCCCCCCCCCC(=O)OC[C@@H](O)COP(=O)(O)OCC(O)CO (mixture of isomers) [14:0 lyso PG, 1-myristoyl-2-hydroxy-sn-glycero-3-phospho-(1′-rac-glycerol)]
- changes in QTc (guinea pigs [1]; concomitant oral 14:0 lyso PG with Moxifloxacin, 14:0 lyso PG:Moxifloxacin ratio 0.45:1, n=6): no, or very little, changes in QTc
- shift in the QTc-dose response of Moxifloxacin (guinea pigs [1]; concomitant oral 14:0 lyso PG, ratio 0.45:1): statistically significant right-shift
- change in cardiac electrophysiology (guinea pigs [2]; guinea pig, in vivo, po, 1 mg/kg): no change in cardiac electrophysiology
- QTc prolongation for any given dose of Fingolimod relative to verapamil+Fingolimod animals (guinea pigs [2]; oral 1.0 mg/kg 14:0 lyso PG, then 0.5 mg/kg verapamil i.v. at 60 min, Fingolimod i.v. at 120 min): ⅓
- Maximum Tolerated Dose (MTD) (guinea pigs [2]; oral gavage formulation): greater than the highest achievable dose in the oral formulation
- right-shift of the appearance of 3rd-degree AV block compared to Fingolimod alone (guinea pigs [3]; [7]): 13 fold
- right-shift of the appearance of 3rd-degree AV block compared to animals receiving both Fingolimod and verapamil (guinea pigs [3]; [7]): 6.6 fold
- adverse effects ([4]; exposure levels used in the curcumin Phase 1a and Phase 1b clinical trials): devoid of adverse effects
- clinical efficacy against curcumin: QT and QTc interval prolongation ([4]; ongoing Phase 1b study, human patients): preventing QT and QTc interval prolongation
- tolerability in clinical trials ([4]; orally-administered): well-tolerated
- QTc prolongation by other drugs [5]: prevents

- Fingolimod dose at 1st-degree AV block (guinea pigs [3]; [8]): 0.007 mg/kg
- Fingolimod dose at 3rd-degree dissociation between P waves and QRS complexes (guinea pigs [3]; [8]): 0.045 mg/kg
- Fingolimod dose at Mobitz-Type-1 2nd degree AV block (guinea pigs [3]; [8]): 0.01 mg/kg
- Fingolimod dose at 1st degree AV block (guinea pigs [3]; [9]): 0.015 mg/kg
- Fingolimod dose at 3rd degree AV block (guinea pigs [3]; [9]): 0.023 mg/kg
- Fingolimod dose at Mobitz Type-1, 2nd-degree AV block (guinea pigs [3]; [9]): 0.02 mg/kg
- Fingolimod dose at 1st-degree AV block (guinea pigs [3]; oral 1.0 mg/kg 14:0 lyso PG, 0.5 mg/kg verapamil i.v. 60 min later, Fingolimod infusion 60 min post-verapamil): 0.2 mg/kg
- Fingolimod dose at P-QRS dissociation, in the rest of the animals in the cohort (guinea pigs [3]; [10]): 0.3 mg/kg
- Fingolimod dose at P-QRS dissociation, in the two animals with Mobitz-Type-2 AV block (guinea pigs [3]; [10]): 0.051 mg/kg
- animals with Mobitz-Type-2 AV block (guinea pigs [3]; [10]): 2 out of 6
- changes in PR intervals (guinea pigs [3]; oral 1.0 mg/kg 14:0 lyso PG, then verapamil, then Fingolimod infusion, up to a dose of 200 μg/kg): modest changes in PR intervals
Structure (SMILES): CCCCCCCCc1ccc(CCC(N)(CO)CO)cc1 [Fingolimod]
- AV block in human patients ([6]; Full Prescribing Information, Novartis): produce AV block from the first dose
- QT/QTc prolongation ([6]; administered alone in healthy, naive animals and clinical volunteers): limited QT/QTc prolongation
- QTc intervals ([6]; clinical patients taking verapamil along with Fingolimod): severely prolonged QTc intervals
- delays in repolarization ([6]; therapeutic doses, in a pair of individuals (EMA Assessment Report)): 60 ms
- IKr inhibition (IKr): approximately 64%
